Source: patent publication US11786543B2, “Compositions comprising decitabine and tetrahydrouridine and uses thereof” (The Board of Trustees of the University of Illinois, priority 2008, dated 2023)
Where “and” joins values, the source holds several entries; their conditions need not be identical. Equal entries are not always repeated.

Experiments:
[1] = test system: normal hematopoietic precursors; type: cell-based; details: DAC 0.5 μM, equimolar Ara-C, clinically relevant levels of HU; measured D6
Procedure: Measurement was performed on D6.
Normal CD34 cells were isolated from cord blood. […] Equimolar levels of AraC were used as positive controls. […] Twenty-four hours after DAC or AraC exposure, apoptosis was measured by flow-cytometric assessment for annexin staining. Double annexin/7-aminoactinomycin D (7AAD)-positive cells represent late apoptosis/necrosis. […] Results are expressed as a percentage of vehicle treated controls.
(§1) AraC, a cytidine analog that terminates DNA chain synthesis, was used as a positive control for DNA damage and apoptosis induction.

[2] = test system: normal CD34+ cells; assay: Cell counts, morphology and colony formation; type: cell-based; details: non-DNA-damaging DNMTI-depleting decitabine; Ara-C equimolar
Source text: The Kasumi-1 cell-line is derived from a patient with AMLI-ETO leukemia and represents a late-stage model of transformation and malignant evolution.

[3] = test system: normal CD34+ hematopoietic cells; assay: DNA damage (Fast Micromethod for DNA scission, γH2AX flow cytometry); details: decitabine 0.5 μM D1,3,5; Ara-C 0.5 μM D1,3,5; hydroxyurea 500 μM D1-5; measured D6
Procedure: Measurement was performed on D6.
Dark histogram=isotype control for flow-cytometricanalysis. Light histograms show the γH2AX staining for untreated control cells. Measurement was performed on D6.
Normal CD34 cells were isolated from cord blood. DAC 0.005 μM was added once daily on days 1-4 and DNMT1 was quantified by Western blot on day 5. […] Twenty-four hours after DAC or AraC exposure, DNA damage was measured by flow-cytometric assessment for phosphorylation of histone H2AX (γH2AX; B) or the Fast Micromethod for DNA scission (FIG. 19C). Equimolar levels of AraC were used as positive controls. Gray histogram is the isotype control. […] Twenty-four hours after DAC or AraC exposure, apoptosis was measured by flow-cytometric assessment for annexin staining. Double annexin/7-aminoactinomycin D (7AAD)-positive cells represent late apoptosis/necrosis. […] Results are expressed as a percentage of vehicle treated controls.
as §1

[4] = test system: baboons; assay: Pharmacodynamic responses (HbF %, neutrophil counts) to decitabine with or without THU in baboons; type: in vivo, baboon; design: ANC nadir: unit not given here
Procedure: Fetal hemoglobin expression, HbF %, pre and post treatment with the indicated dose of decitabine. […] Oral treatment was with decitabine or a slightly modified decitabine (decitabine-mesylate—Dac-m).
Decitabine was administered at the doses indicated in two consecutive blocks of 5 days each. THU at the indicated doses was administered 60 minutes before each decitabine dose.

[5] = Decitabine plasma pharmacokinetics in baboons (LC/MS)
Procedure: Baboons were treated with IV decitabine 0.5 mg/kg (2 animals), SQ decitabine 0.5 mg/kg (2 animals), or oral decitabine 10 mg/kg (2 animals).
Decitabine was administered to two baboons IV (0.5 mg/kg), SQ (0.5 mg/kg) and orally (10 mg/kg). Blood was collected at 7 time-points and plasma concentrations were determined using an LC/MS/MS method adapted from a previously published method 26.
AUClast refers to the area under a plotted plasma concentration-time curve (not shown) at the last recorded timepoint.
Two baboons (PA7484 and PA7470) were administered oral THU 20 mg/kg (400 mg/m^2) 60 minutes prior to oral decitabine 5 mg/kg, or decitabine alone. After a wash-out period of greater than 2 weeks, these same two animals were administered oral THU 2 mg/kg […] 60 minutes prior to oral decitabine 5 mg/kg, or oral decitabine alone. […] Decitabine levels were measured at various timepoints by LC-MS. […]
To compare the effect of different routes of administration on the DAC concentration-time profile, plasma DAC levels were compared after IV or SC administration versus oral administration to the same animals (washout period of ≥2 weeks between drug administrations to the same animal). […] Blood was collected for up to 7 time-points after administration and plasma concentrations were determined using LC/MSMS. […]

[6] = test system: Reno-1 renal cell cancer xenograft; details: mouse, in vivo
Procedure: In an effort to apply the proposed formulation and regimen to treat different cancer histologies, a renal cell cancer cell-line (Reno-1) was developed from a surgical sample of renal cancer and used in a xeno-transplantation experiment. […] The percentage of necrosis in each tissue section was evaluated in a blinded fashion.

[7] = Oral 9.35 mg/kg/d, individual baboons, 9.35 mg/kg/day
[8] = Oral 18.7 mg/kg/d, individual baboons

For `Nc1ccn([C@@H]2O[C@H](CO)[C@@H](O)[C@@H]2O)c(=O)n1` [Ara-C, cytosine arabinoside], the “apoptosis (annexin V-FITC and 7AAD double staining)” value [1] was “cause significant apoptosis and cell-death”, the cell counts [2] was “more devastating to normal cells” and the “DNA damage (Fast Micro-method for DNA scission, γH2AX)” value [3] was “cause significant DNA damage”.

`CS(=O)(=O)O.Nc1ncn([C@H]2C[C@H](O)[C@@H](CO)O2)c(=O)n1` [Dac-m, decitabine-mesylate] showed an ANC nadir ([4]; Oral 4.1 mg/kg/d, baboon 7001) of 1417, a Post-HbF % ([4]; Oral 4.1 mg/kg/d, baboon 7001) of 13.1% and an ANC nadir ([4]; Oral 6.7 mg/kg/d, baboon 7002) of 481. The Post-HbF % ([4]; Oral 6.7 mg/kg/d, baboon 7002) was 31.4%, the ANC nadir [4, 7] was 463 and 2000 and the Post-HbF % [4, 7] was 62.3% and 40.5%. The ANC nadir [4, 8] was 1659 and the Post-HbF % [4, 8] was 67.8%.

In the case of `O=C1NC(O)CCN1[C@@H]1O[C@H](CO)[C@@H](O)[C@H]1O` (some centres unmarked) [THU, Tetrahydrouridine], the “DAC concentrations, THU 400 mg/m^2 versus THU 40 mg/m^2” value ([5]; 60 minutes before DAC 100 mg/m^2, PA7470 and PA7484) is reported as “produced higher DAC concentrations” and the “DAC concentrations, THU 60 minutes before versus simultaneously or 30 minutes before DAC” value ([5]; in vivo) is reported as “produced higher DAC concentrations”.

In the case of “avastin: standard agent used to treat renal cancer”, the “sensitivity of the tumor to standard agents” value [6] is reported as “relatively resistant”.
